# US11874276B2, “STING levels as a biomarker for cancer immunotherapy” (Dana-Farber Cancer Institute, Inc., priority 2018, dated 2024)
# Entries after “also recorded” stand apart in the source; their conditions may differ.
# B1: IFNγ: Recombinant human IFN-γ protein from R&D Systems (protein, UniProt P01579 24-161, looked up)
# Interferon gamma: QDPYVKEAENLKKYFNAGHSDVADNGTLFLGILKNWKEESDRKIMQSQIVSFYFKLFKNFKDDQSIQKSVETIKEDMNVKFFNSNKKKRDDFEKLTNYSVTDLNVQRKAIHELIQVMAELSPAAKTGKRKRSQMLFRG
# Key:
# Assay type in all cases: cell-based, human
# TNBC cell lines = experiment: CXCL10 secretion by TNBC cell lines treated with STING agonist; details: all TNBC cell lines, relative to a control
# Protocol: TNBC cell lines were also assayed for their responsiveness to the STING agonist AduroS100. Cells were treated with AduroS100 or a control and CXCL10 levels secreted into the supernatant were measured.
# H69AR cells [1] = experiment: IFNγ pulsed H69AR cells chased in media with drug; pSTAT1 immunoblot, CXCL10/ERV qRT-PCR, CXCL10 ELISA; details: 10 min IFNγ pulse, 24 h chase, 1 μM
# Protocol: For IFN pulse experiments, cells were pulsed 10 minutes with IFN-γ 200 ng/mL or 10 ng/mL), IFN-α 10 000 U/mL), or IFN-β 10 000 U/mL), extensively washed, and chased in fresh media for an additional 24, 48 or 72 hours. To test drug effects on gene expression or protein secretion, IFN-γ pulsed H69AR cells were treated with DMSO, 1 μM MRT67307 or 100 nM Ruxolitinib for 24, 48 and 72 hours. Proteome Profiler™ Human Cytokine Array Kit (#ARY005B) and CXCL10 ELISA (#DIP100) (R&D Systems, Minneapolis, MN), were performed according to manufacturer's instructions. For cytokine array, conditioned media (CM) from SCLC cells at basal conditions was collected after 48 and 72 hours. For CXCL10 ELISA, CM from IFN-γ pulsed cells was collected after 72 hours. Total cellular RNA was extracted using the miRNeasy Mini Kit (Qiagen, Hilden, Germany) according to manufacturer's instructions. After extraction, 1 μg total RNA was used to generate cDNA with the SuperScript III First-Strand Synthesis SuperMix for qRT-PCR kit (Thermo Fisher Scientific, Waltham, MA). Quantitative reverse transcription PCR (qRT-PCR) of the indicated genes was performed using SYBR green PCR Master Mix (Applied Biosystems, Foster City, CA) and the Applied Biosystems 7300 Fast real-time PCR system and software. The relative expression was normalized with the expression of the housekeeping gene 36B4.
# H69 cells [2] = experiment: EZH2 inhibition of H69 cells followed by IFNγ exposure; SPARCS qRT-PCR and cytokine profiling; details: for reactivation / de-repression of SPARCS ERVs: 5 μM for 6 days, then IFNγ 24 h
# Protocol: For EZH2 inhibition experiments, H69 cells were treated with 5 μM GSK126 for 6 days. Drug was replenished every 3 days with both suspension and adherent cells carried each time. After the GSK126 treatment period, equal numbers of DMSO-treated and GSK126-treated cells were exposed to either H2O or 200 ng/mL IFN-γ for 24 hours before harvesting of RNA or conditioned media (CM).
# (§1) Multiplex assays were performed utilizing the bead-based immunoassay approach Bio-Plex Pro™ Human Cytokine 40-plex Assay (Cat #171AK99MR2) on a Bio-plex 200 system (Cat #171000201) (Bio-Rad Laboratories, Hercules, CA) and the Human Cytokine/Chemokine Maganetic Bead Panel (Cat #HCYTMAG-60K-PX30) on a Luminex MAGPIX system (Merck Millipore, Billerica, MA). Conditioned media concentration levels [pg/ml] of each protein were derived from 5-parameter curve fitting models. Fold changes relative to the corresponding control were calculated and plotted as log 2FC. Lower and upper limits of quantitation (LLOQ/ULOQ) were imputed from standard curves for cytokines above or below detection.
# (§2) Total cellular RNA was extracted using the miRNeasy Mini Kit (Qiagen, Hilden, Germany) according to manufacturer's instructions. After extraction, 1 μg total RNA was used to generate cDNA with the SuperScript III First-Strand Synthesis SuperMix for qRT-PCR kit (Thermo Fisher Scientific, Waltham, MA). Quantitative reverse transcription PCR (qRT-PCR) of the indicated genes was performed using SYBR green PCR Master Mix (Applied Biosystems, Foster City, CA) and the Applied Biosystems 7300 Fast real-time PCR system and software. The relative expression was normalized with the expression of the housekeeping gene 36B4.
# H69 cells [3] = experiment: Immunoblot of STING in H69 cells after GSK126 treatment
# Source text: Immunoblot of STING, histone H3K27me3 and β-actin levels in H69 cells after GSK126 (EZH2 inhibitor) treatment at the indicated concentrations and for the indicated number of days.
# (§3) Protein was isolated from cell lines and measured by BCA (Pierce Biotechnology). Protein extracts were subjected to polyacrylamide gel electrophoresis using the 4%-12% NuPAGE gel system (Invitrogen, Carlsbad, CA), transferred to PVDF (Millipore) membranes, and immunoblotted using antibodies that specifically recognize TBK1 (#3013), S172 pTBK1 (#5483), pERK1/2 (#4370), ERK1/2 (#9107), S473 pAKT (#4060), AKT (#9272), S396 pIRF3 (#4947), IRF3 (#4302), Y701 pSTAT1 (#9171), STAT1 (#9172), AXL (#8661), EZH2 (#5246), STING (#13647), MAVS (#3993), E-Cadherin (#3195), Vimentin (#5741), β-Actin (#4970), Tubulin (#2144) (Cell Signaling Technologies, Danvers, MA) and IKKε (#14907) (Sigma-Aldrich, St. Louis, MO).
# A549 cells = experiment: Immunoblot of STING in KL cell lines with LKB1 reconstitution with or without DNMT inhibitor; details: A549 cells (KL DNMT high) with LKB1 reconstitution
# Protocol: FIGS. 16A to 16C. FIG. 16A: Immunoblot of the indicated proteins in KL cell lines transduced with the indicated vector. FIG. 16B: Correlation between STING and DNMT1 expression in KL cell lines. FIG. 16C: Immunoblot of the indicated proteins in KL cell lines transduced with the indicated vector with or without 100 nM 5-aza-2′-deoxycytidine (DAC) treatment for 7 days.
# NSCLC PDOTS = experiment: Ex vivo culture of patient-derived organotypic tumor spheroids (PDOTS); cytokine profiling and viability; details: in contrast to NSCLC-2; for production of multiple cytokines/chemokines, especially CXCL10: NSCLC-1 PDOTS (SPARCS high features); for sensitization to ex vivo PD-1 blockade with nivolumab: NSCLC-1 PDOTS, viability Day 6
# Source text: PDOTS from human NSCLC resection specimens were generating according to the recent publication^21. Briefly, fresh tumor specimens were minced and resuspended in media with collagenase type IV (Life Technologies, Carlsbad, CA). After digestion, samples were strained over 100 μm filter and 40 μm filters to generate S1 (>100 μm), S2 (40-100 μm), and S3 (<40 μm) spheroid fractions. S2 spheroid fraction was pelleted and resuspended in type I rat tail collagen (Corning, Corning, NY) at a concentration of 2.5 mg/mL. The spheroid-collagen mixture was then injected into the center gel region of the 3D microfluidic culture device. Collagen hydrogels containing PDOTS were hydrated with media and treated with anti-PD-1 (Nivolumab, 100 μg/mL), IFNγ (200 ng/mL), Poly (I:C) (0.5 μg/mL) or combination (Nivolumab+IFNγ Nivolumab+Poly (I:C)). The number of Live/Dead cells in each treatment condition was determined by Trypan Blue Exclusion method and plotted as percentage of viability.
# as §1
# H69AR cells [4] = experiment: Poly(I:C) transfection of H69AR cells; qRT-PCR; details: 72 h following transfection
# Protocol: as §2
# For Poly(I:C) dsRNA treatment experiments, H69ARsgCTRL and H69ARsgMAVS cells were plated in RPMI media, transfected with 0.5 μg/mL Poly(I:C) HMW (InvivoGen, Sand Diego, CA) using XtremeGene HP transfection reagent (Sigma-Aldrich, St. Louis, MO) and cultured for 72 hours. On day 3 after transfection, conditioned media was recovered and CXCL10 protein expression was quantified using Human CXCL10/IP-10 Quantikine ELISA kit (R&D Systems, Minneapolis, MN). RNA was extracted and expression levels of relevant genes were analyzed by qRT-PCR.
# [5] = system: H69AR cells, SPARCS high cell lines; experiment: IFN pulse-chase of SCLC and other cancer cell lines; qRT-PCR, immunoblot
# Protocol: To test drug effects on gene expression or protein secretion, IFN-γ pulsed H69AR cells were treated with DMSO, 1 μM MRT67307 or 100 nM Ruxolitinib for 24, 48 and 72 hours.
# as §3, §2
molecule,measurement,setting,value
Nc1ncnc2c1ncn2[C@@H]1O[C@@H]2COP(O)(=S)O[C@@H]3C(O)[C@@H](COP(O)(=S)O[C@H]2[C@H]1O)O[C@H]3n1cnc2c(N)ncnc21 (some centres unmarked) [AduroS100],CXCL10 levels secreted into the supernatant,TNBC cell lines,elevated levels; also recorded: increased CXCL10 production
O=C(NCCCNc1nc(Nc2cccc(CN3CCOCC3)c2)ncc1C1CC1)C1CCC1 [MRT67307],effect on downstream CXCL10 expression,H69AR cells [1],partially inhibited
CC[C@H](C)n1cc(C)c2c(C(=O)NCc3c(C)cc(C)[nH]c3=O)cc(-c3ccc(N4CCNCC4)nc3)cc21 [GSK126],reactivation / de-repression of SPARCS ERVs,H69 cells [2],induced their reactivation
same,reactivation / de-repression of SPARCS ERVs,H69 cells [2]; listed as EZH2 inhibitor,de-repressed the same SPARCS as in H69AR cells
same,IFNγ induced cytokine secretion,H69 cells [2]; treatment over 6 days,enhanced
same,STING protein expression,H69 cells [3],induces STING protein expression
"Nc1ncn([C@H]2C[C@H](O)[C@@H](CO)O2)c(=O)n1 [DNMT inhibitor, 5-aza-2′-deoxycytidine]",STING expression,A549 cells,able to restore STING expression
Poly(I:C),"production of multiple cytokines/chemokines, especially CXCL10",NSCLC PDOTS,markedly enhanced; also recorded: markedly enhances CXCL10 production
same,sensitization to ex vivo PD-1 blockade with nivolumab,NSCLC PDOTS,sensitized; also recorded: sensitizes them to PD-1 blockade
same,SPARCS upregulation,H69AR cells [4],SPARCS upregulation
same,induction of type I/II IFNs,H69AR cells [4],Induction of type I/II IFNs was also confirmed
IFNα,"SPARCS upregulation (MLT1C49, MLT1A)","[5]; H69AR cells, 10 min pulse with chase",SPARCS upregulation
B1,"production of multiple cytokines/chemokines, especially CXCL10",NSCLC PDOTS,markedly enhanced
same,sensitization to ex vivo PD-1 blockade with nivolumab,NSCLC PDOTS,sensitized
same,"pTBK1, pIRF3 and pSTAT1 activation","[5]; H69AR but not H69 cells, pulse treatment",hyperactivated and sustained
same,induction of TRIM22 and MLT1C49,"[5]; H69AR cells, 10 minute pulse",marked induction
same,"MLT1C49, CXCL10 and PD-L1 expression","[5]; SPARCS high cells relative to SPARCS low cells, pulse treatment",significantly induced
